Test results: US20250197408A1, “CRYSTALLINE FORMS AND SALTS OF A PI3K INHIBITOR AND METHODS OF MAKING AND METHODS OF USE THEREOF” (Totus Medicines Inc., priority 2022, published 2025)
Values after ≈ are worked out from the molar mass of the structure shown.

Experiments:
[1] = system: NCI-H1373 (Lung); experiment: Cell proliferation assay (CellTiter-Glo, 3 days treatment), NCI-H1373; type: cell-based; conditions: read-out: Absolute IC50
Description: (§1) The cell lines tested included as follows: UM-UC-3 (bladder), KYSE-410 (HN/Esophagus), SW1463 (rectum), Calu-1 (Lung), NCI-H358 (Lung), SW837 (Rectum), SW756 (Cervix), NCI-H2122 (Lung), NCI-H1373 (Lung), NCI-H1792 (Lung), NCI-H23 (Lung), MIA PaCa-2 (Pancreas), and HC44.
(§2) Cells were recovered and maintained in appropriate culture media. The cells were harvested respectively during the logarithmic growth period. The cells were then resuspended and counted using a Vi cell counter (The cell viability be measured by trypan blue exclusion assay.). The cells were then diluted and 90 μL cell suspensions were used in 96-well plates according to plate map with final cell density. Two duplicate plates were set up. One is for day 0 reading (TO) and the other was cultured in incubator for reading at the end point. The incubated plates were incubated overnight in humidified incubator at 37° C. with 5% CO2.
(§3) At day 0, 10 μL culture medium to each well for TO reading. 10 μL of culture medium was added to each well for TO reading. Then, 50 μl CellTiter-Glo® Reagent was added to each well. […] Luminescence was then recorded using an EnVision Multi Label Reader. […]
(§4) For the endpoint CTG reading, 50 μL of CellTiter-Glo® Reagent were added to each well. […] Luminescence was then recorded using an EnVision Multi Label Reader. IC50's were determined for each cell line.

[2] = system: NCI-H2122 (Lung); experiment: Cell proliferation assay (CellTiter-Glo, 3 days treatment), NCI-H2122; type: cell-based; conditions: read-out: Absolute IC50
Description: as §1, §2, §3, §4

[3] = system: UM-UC-3 (bladder); experiment: Cell proliferation assay (CellTiter-Glo, 3 days treatment), UM-UC-3; type: cell-based; conditions: read-out: Absolute IC50
Description: as §1, §2, §3, §4

[4] = system: SW756 (Cervix); experiment: Cell proliferation assay (CellTiter-Glo, 3 days treatment), SW756; type: cell-based; conditions: read-out: Absolute IC50
Description: as §1, §2, §3, §4

[5] = system: KYSE-410 (HN/Esophagus); experiment: Cell proliferation assay (CellTiter-Glo, 3 days treatment), KYSE-410; type: cell-based; conditions: read-out: Absolute IC50
Description: as §1, §2, §3, §4

[6] = system: NCI-H1792 (Lung); experiment: Cell proliferation assay (CellTiter-Glo, 3 days treatment), NCI-H1792; type: cell-based; conditions: read-out: Absolute IC50
Description: as §1, §2, §3, §4

[7] = system: NCI-H358 (Lung); experiment: Cell proliferation assay (CellTiter-Glo, 3 days treatment), NCI-H358; type: cell-based; conditions: NCI-H358 (Lung), 3 days treatment; read-out: Absolute IC50
Description: as §1, §2
At day 0, 10 μL culture medium to each well for TO reading. Then, 50 μl CellTiter-Glo® Reagent was added to each well. The contents were then mixed for 2 minutes on an orbital shaker to facilitate cell lysis. The plates were then allowed to incubate at room temperature for 10 minutes to stabilize luminescent signal. Luminescence was then recorded using an EnVision Multi Label Reader. The test compound Compound I, and a control cisplatin, where then diluted at various concentrations from a 10 mM stock solution. Compound I was diluted and 10 μL of each 10× compound I from working solutions for a concentration ranging from 10 μM to about 0.005 μM. Cisplatin was diluted to about […] to about 150 nM. The screening plates were then placed back into the incubator for the appropriate treatment time (3 days).
For the endpoint CTG reading, 50 μL of CellTiter-Glo® Reagent were added to each well. The contents were then mixed for 2 minutes on an orbital shaker to facilitate cell lysis. […] Luminescence was then recorded using an EnVision Multi Label Reader. IC50's were determined for each cell line.

[8] = system: Calu-1 (Lung); experiment: Cell proliferation assay (CellTiter-Glo, 3 days treatment), Calu-1; type: cell-based; conditions: read-out: Absolute IC50
Description: as §1, §2, §3, §4

[9] = system: NCI-H23 (Lung); experiment: Cell proliferation assay (CellTiter-Glo, 3 days treatment), NCI-H23; type: cell-based; conditions: read-out: Absolute IC50
Description: as §1, §2, §3, §4

[10] = system: SW837 (Rectum); experiment: Cell proliferation assay (CellTiter-Glo, 3 days treatment), SW837; type: cell-based; conditions: read-out: Absolute IC50
Description: as §1, §2, §3, §4

[11] = system: MIA PaCa-2 (Pancreas); experiment: Cell proliferation assay (CellTiter-Glo, 3 days treatment), MIA PaCa-2; type: cell-based; conditions: read-out: Absolute IC50
Description: as §1, §2, §3, §4

[12] = system: HC44; experiment: Cell proliferation assay (CellTiter-Glo, 3 days treatment), HC44; type: cell-based; conditions: HCC44 (Lung), read-out: Absolute IC50
Description: as §1, §2, §3, §4

[13] = system: SW1463 (rectum); experiment: Cell proliferation assay (CellTiter-Glo, 3 days treatment), SW1463; type: cell-based; conditions: read-out: Absolute IC50
Description: as §1, §2, §3, §4

[14] = Dynamic vapor sorption (DVS) analysis at 25° C.; type: physicochemical; conditions: for water uptake (DVS): from 40% to 95% RH
Experimental: In one embodiment, the crystalline forms are characterized by Dynamic Vapor Sorption (DVS). The DVS profile is typically expressed by a diagram plotting the sample relative humidity (RH) versus the change in mass (%). The DVS profile provides information on hygroscopicity of the crystalline form at different RH conditions.
A DVS (dynamic vapor sorption) analysis at 25° C. was carried out on Form A** of Compound I benzenesulfonate salt as shown in FIG. 3D.

[15] = Solubility in 7 aqueous pH buffers and bio-relevant fluids at 37° C. (HPLC of supernatant; residual solids by XRPD); type: physicochemical; conditions: for solubility at 2 h / solubility at 24 h: thermodynamic from solid
Experimental: 20 mg of the free base Form A of Compound I was weighed into a 20 mL glass vial. Amounts of the salts equivalent to 20 mg anhydrous free base were weighed into a glass vial. 10 mL of solubility medium was added. The resulting suspensions/solutions were stirred at 37° C. at 400 rpm and sampled at 2 hours and at 24 hours, respectively. The samples were centrifuged at 37° C. at 14,000 rpm for 5 min. Supernatants were analyzed by HPLC and pH meter for solubility and pH value, respectively. Residual solids (wet cakes) from the 24 hours samples were also characterized by XRPD to determine physical form.
Residual solids after the solubility test were analyzed by XRPD.

[16] = Variable humidity XRPD (VH-XRPD) experiments at 25° C.; type: physicochemical; conditions: VH-XRPD and DVS isotherms
Experimental: Variable humidity XRPD (VH-XRPD) experiments.
XRPD analysis was carried out in each specific relative humidity at 25° C. Step: 40% RH (initial)-60% RH (4 h)-80% RH (4 h)-40% RH (4 h)-20% RH (4 h)-0% RH (4 h)-40% RH (4 h).

[17] = ES1, pH 1.2 HCl solution (0.1N), 37° C.
[18] = ES2, pH 4.5 acetate buffer (50 mM), 37° C.
[19] = ES3, pH 6.8 phosphate buffer (50 mM), 37° C.
[20] = ES4, pH 7.4 phosphate buffer (50 mM), 37° C.
[21] = aqueous buffer, ES2, pH 4.5 acetate buffer (50 mM), 37° C.
[22] = aqueous buffer, ES3, pH 6.8 phosphate buffer (50 mM), 37° C.
[23] = aqueous buffer, ES4, pH 7.4 phosphate buffer (50 mM), 37° C.
[24] = simulated gastric fluid, ES1, pH 1.2 HCl solution (0.1N), 37° C.
[25] = simulated gastric fluid, ES5, SGF, pH 2.0, 37° C.

## N.N.[Cl][Pt][Cl] [cisplatin, reference compound]
[1]
  IC50: 8.72 µM
[2]
  IC50: 17.8 µM
[3]
  IC50: 1.86 µM
[4]
  IC50: 10.3 µM
[5]
  IC50: 15.8 µM
[6]
  IC50: 4.88 µM
[7]
  IC50: 12.5 µM
[8]
  IC50: 10.2 µM
[9]
  IC50: 3.58 µM
[10]
  IC50: 42.5 µM
[11]
  IC50: 7.03 µM
[12]
  IC50: 7.96 µM
[13]
  IC50: 12.2 µM

## C=CC(=O)NCC(=O)N1CCN(Cc2cc3c(N4CCOCC4)nc(-c4cnc(NC(=O)OC)cc4C(F)(F)F)nn3c2)CC1.O=P(O)(O)O [Form A* of Compound I phosphate salt, Methyl (5-(6-((4-(acryloylglycyl)piperazin-1-yl)methyl)-4-morpholinopyrrolo[2,1-f][1,2,4]triazin-2-yl)-4-(trifluoromethyl)pyridin-2-yl) carbamate phosphate salt]
[14]
  hygroscopicity / water sorption behavior (DVS): slightly hygroscopic in <90% RH. Then it becomes hygroscopic
  relative humidity in which it converts to hydrate form (DVS): > 30 % RH
  relative humidity in which the form dehydrates (DVS): < 30 % RH
  solid form of the sample after the DVS test: still the Form A* of Compound I phosphate salt
  water uptake (DVS): 3.3%
[15]; 37° C., 2 h and 24 h, 7 aqueous pH buffers and bio-relevant fluids
  solubility compared among forms: highest solubility
[15]; [17]
  Solubility for 2 h: 1200 µg/mL
  pH of supernatant, solubility for 2 h (pH): (1.2)
  Solubility for 24 h: 1000 µg/mL
  pH of supernatant, solubility for 24 h (pH): (1.0)
[15]; [18]
  Solubility for 2 h: >2000 µg/mL
  pH of supernatant, solubility for 2 h (pH): (4.4)
  Solubility for 24 h: >2000 µg/mL
  pH of supernatant, solubility for 24 h (pH): (4.4)
[15]; [19]
  Solubility for 2 h: 8.8 µg/mL
  pH of supernatant, solubility for 2 h (pH): (6.6)
  Solubility for 24 h: 6.4 µg/mL
  pH of supernatant, solubility for 24 h (pH): (6.5)
[15]; [20]
  Solubility for 2 h: 6.1 µg/mL
  pH of supernatant, solubility for 2 h (pH): (7.2)
  Solubility for 24 h: 4.1 µg/mL
  pH of supernatant, solubility for 24 h (pH): (7.1)
[15]; ES5, SGF, pH 2.0, 37° C.
  Solubility for 2 h: >2000 µg/mL
  pH of supernatant, solubility for 2 h (pH): (1.9)
  Solubility for 24 h: >2000 µg/mL
  pH of supernatant, solubility for 24 h (pH): (1.8)
[15]; ES6, FaSSIF-v1, pH 6.5, 37° C.
  Solubility for 2 h: 26.8 µg/mL
  pH of supernatant, solubility for 2 h (pH): (6.2)
  Solubility for 24 h: 21.1 µg/mL
  pH of supernatant, solubility for 24 h (pH): (6.1)
[15]; ES7, FeSSIF-v1, pH 5.0, 37° C.
  Solubility for 2 h: 1600 µg/mL
  pH of supernatant, solubility for 2 h (pH): (5.0)
  Solubility for 24 h: 1700 µg/mL
  pH of supernatant, solubility for 24 h (pH): (4.9)
[15]; pH 4.5 buffer, 37° C.
  maintenance of supersaturation: can be maintained for a longer time than the crystalline Form B* of Compound I maleate salt
[16]
  relative humidity at which the form dehydrates and converts to anhydrate Form B of Compound I phosphate salt: < 20 % RH

## C=CC(=O)NCC(=O)N1CCN(Cc2cc3c(N4CCOCC4)nc(-c4cnc(NC(=O)OC)cc4C(F)(F)F)nn3c2)CC1 [Form A of Compound I, methyl (5-(6-((4-(acryloylglycyl)piperazin-1-yl)methyl)-4-morpholinopyrrolo[2,1-f][1,2,4]triazin-2-yl)-4-(trifluoromethyl)pyridin-2-yl) carbamate]
[14]
  hygroscopicity / water sorption behavior (DVS): slightly hygroscopic
  solid form of the sample after the DVS test: still the free base Pattern A
  water uptake (DVS): about 1.4%
[15]; [17]
  pH of supernatant, solubility for 2 h (pH): (1.2)
  pH of supernatant, solubility for 24 h (pH): (1.0)
[15]; [18]
  pH of supernatant, solubility for 2 h (pH): (4.5)
  pH of supernatant, solubility for 24 h (pH): (4.4)
[15]; [19]
  pH of supernatant, solubility for 2 h (pH): (6.8)
  pH of supernatant, solubility for 24 h (pH): (6.7)
[15]; [20]
  pH of supernatant, solubility for 2 h (pH): (7.5)
  pH of supernatant, solubility for 24 h (pH): (7.4)
[15]; ES5, SGF, pH 2.0, 37° C.
  pH of supernatant, solubility for 2 h (pH): (2.0)
  pH of supernatant, solubility for 24 h (pH): (1.9)
[15]; ES6, FaSSIF-v1, pH 6.5, 37° C.
  pH of supernatant, solubility for 2 h (pH): (6.5)
  pH of supernatant, solubility for 24 h (pH): (6.5)
  solubility at 2 h: 9.4 µg/mL (≈ 14.9 µM)
  solubility at 24 h: 11.5 µg/mL (≈ 18.2 µM)
[15]; ES7, FeSSIF-v1, pH 5.0, 37° C.
  pH of supernatant, solubility for 2 h (pH): (5.0)
  pH of supernatant, solubility for 24 h (pH): (5.0)
  solubility at 2 h: 600 µg/mL (≈ 950 µM)
  solubility at 24 h: 600 µg/mL (≈ 950 µM)
[15]; [21]
  solubility at 2 h: 200 µg/mL (≈ 317 µM)
  solubility at 24 h: 300 µg/mL (≈ 475 µM)
[15]; [22]
  solubility at 2 h: 2.9 µg/mL (≈ 4.59 µM)
  solubility at 24 h: 5.1 µg/mL (≈ 8.07 µM)
[15]; [23]
  solubility at 2 h: 2.2 µg/mL (≈ 3.48 µM)
  solubility at 24 h: 3.8 µg/mL (≈ 6.02 µM)
[15]; [24]
  solubility at 2 h: 1200 µg/mL (≈ 1900 µM)
  solubility at 24 h: 1000 µg/mL (≈ 1580 µM)
[15]; [25]
  solubility at 2 h: > 2000 µg/mL
  solubility at 24 h: > 2000 µg/mL
